Experimental data from paper PMC11249646, “Small-Molecule Disruptors of the Interaction between Calcium- and Integrin-Binding Protein 1 and Integrin αIIbβ3 as Novel Antiplatelet Agents” (ACS Pharmacology & Translational Science, 2024).

target: T1, CIB1 and αIIb interaction (GST-CIB1 : F-αIIb peptide) (Homo sapiens, UniProt Q99828); assay: FP assay, 384-well format (screen); type: binding; parameters: 384-well SCREEN Efficacy (%): concentration or dose not given beside the values; conditions: F-αIIb peptide
T1 construct: made in house; host or cells: BL-21 plus RIL cells (E. coli)
T1 sequence (Q99828 1-191): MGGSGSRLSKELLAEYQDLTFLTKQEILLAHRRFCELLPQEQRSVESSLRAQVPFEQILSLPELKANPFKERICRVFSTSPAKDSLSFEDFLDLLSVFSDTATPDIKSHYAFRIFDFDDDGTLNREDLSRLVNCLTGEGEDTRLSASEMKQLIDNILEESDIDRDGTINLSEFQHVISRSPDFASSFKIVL

SMILES	384-well SCREEN Efficacy (%)
Cl.NC(CO)(CO)CCc1ccc(Sc2cccc(OCc3ccccc3)c2)cc1Cl [NCGC00250388-02]	57%
Cc1cc2c(C(C)C)c(O)c(O)c(C=O)c2c(O)c1-c1c(C)cc2c(C(C)C)c(O)c(O)c(C=O)c2c1O [NCGC00261532-01]	90%
Cc1ccc(S(=O)(=O)Nc2cnccc2C(=O)Nc2nc(-c3ccccc3)cs2)cc1.O=C(O)C(F)(F)F [NCGC00262386-01]	29%

same assay, conditions: F-αIIb peptide; YES/NO

SMILES	384-well SCREEN Confirm?
Cl.NC(CO)(CO)CCc1ccc(Sc2cccc(OCc3ccccc3)c2)cc1Cl [NCGC00250388-02]	YES
Cc1cc2c(C(C)C)c(O)c(O)c(C=O)c2c(O)c1-c1c(C)cc2c(C(C)C)c(O)c(O)c(C=O)c2c1O [NCGC00261532-01]	YES
Cc1ccc(S(=O)(=O)Nc2cnccc2C(=O)Nc2nc(-c3ccccc3)cs2)cc1.O=C(O)C(F)(F)F [NCGC00262386-01]	YES

same assay, conditions: F-αIIb peptide; read-out: 384-well SCREEN IC50

SMILES	IC50
Cl.NC(CO)(CO)CCc1ccc(Sc2cccc(OCc3ccccc3)c2)cc1Cl [NCGC00250388-02]	31.6 µM
Cc1cc2c(C(C)C)c(O)c(O)c(C=O)c2c(O)c1-c1c(C)cc2c(C(C)C)c(O)c(O)c(C=O)c2c1O [NCGC00261532-01]	2.7 µM
Cc1ccc(S(=O)(=O)Nc2cnccc2C(=O)Nc2nc(-c3ccccc3)cs2)cc1.O=C(O)C(F)(F)F [NCGC00262386-01]	16.1 µM

target: T2, GST-CIB1 : F-scrambled peptide (Homo sapiens, UniProt Q99828); assay: FP scrambled-peptide counter screen, 384-well format; type: binding; conditions: F-scrambled peptide
T2 construct: made in house; host or cells: BL-21 plus RIL cells (E. coli)
T2 sequence (Q99828 1-191): T1 sequence (Q99828 1-191)

SMILES	384-well COUNTERSCREEN Efficacy (%)
Cl.NC(CO)(CO)CCc1ccc(Sc2cccc(OCc3ccccc3)c2)cc1Cl [NCGC00250388-02]	17%
Cc1cc2c(C(C)C)c(O)c(O)c(C=O)c2c(O)c1-c1c(C)cc2c(C(C)C)c(O)c(O)c(C=O)c2c1O [NCGC00261532-01]	60%
Cc1ccc(S(=O)(=O)Nc2cnccc2C(=O)Nc2nc(-c3ccccc3)cs2)cc1.O=C(O)C(F)(F)F [NCGC00262386-01]	42%

same assay, conditions: F-scrambled peptide; *: Curve in opposite direction

SMILES	384-well COUNTERSCREEN Confirm?
Cl.NC(CO)(CO)CCc1ccc(Sc2cccc(OCc3ccccc3)c2)cc1Cl [NCGC00250388-02]	YES
Cc1cc2c(C(C)C)c(O)c(O)c(C=O)c2c(O)c1-c1c(C)cc2c(C(C)C)c(O)c(O)c(C=O)c2c1O [NCGC00261532-01]	YES
Cc1ccc(S(=O)(=O)Nc2cnccc2C(=O)Nc2nc(-c3ccccc3)cs2)cc1.O=C(O)C(F)(F)F [NCGC00262386-01]	YES

same assay, conditions: F-scrambled peptide; read-out: 384-well COUNTERSCREEN IC50

SMILES	IC50
Cl.NC(CO)(CO)CCc1ccc(Sc2cccc(OCc3ccccc3)c2)cc1Cl [NCGC00250388-02]	> 120 µM
Cc1cc2c(C(C)C)c(O)c(O)c(C=O)c2c(O)c1-c1c(C)cc2c(C(C)C)c(O)c(O)c(C=O)c2c1O [NCGC00261532-01]	33 µM
Cc1ccc(S(=O)(=O)Nc2cnccc2C(=O)Nc2nc(-c3ccccc3)cs2)cc1.O=C(O)C(F)(F)F [NCGC00262386-01]	> 120 µM

target: T3, CIB1 and αIIb interaction (CIB1-GST : F-αIIb peptide) (Homo sapiens, UniProt Q99828); assay: FP assay, 1536-well qHTS format (primary and confirmatory screen); type: binding; conditions: confirmatory screen
T3 construct: made in house; host or cells: BL-21 plus RIL cells (E. coli)
T3 sequence (Q99828 1-191): T1 sequence (Q99828 1-191)

SMILES	Efficacy (%) (confirmatory screen)
Cc1cc2c(C(C)C)c(O)c(O)c(C=O)c2c(O)c1-c1c(C)cc2c(C(C)C)c(O)c(O)c(C=O)c2c1O [NCGC00261532-01]	-70%

same assay, conditions: confirmatory screen, YES/NO

SMILES	Confirm? (confirmatory screen)
Cc1cc2c(C(C)C)c(O)c(O)c(C=O)c2c(O)c1-c1c(C)cc2c(C(C)C)c(O)c(O)c(C=O)c2c1O [NCGC00261532-01]	YES

same assay, conditions: confirmatory screen, YES/NO call

SMILES	CONFIRMATORY SCREEN Confirm?
Cl.NC(CO)(CO)CCc1ccc(Sc2cccc(OCc3ccccc3)c2)cc1Cl [NCGC00250388-02]	YES
Cc1ccc(S(=O)(=O)Nc2cnccc2C(=O)Nc2nc(-c3ccccc3)cs2)cc1.O=C(O)C(F)(F)F [NCGC00262386-01]	YES

same assay, conditions: confirmatory screen, qHTS curve class; negative sign = inhibitory curve

SMILES	CONFIRMATORY SCREEN Curve Class	Curve Class (confirmatory screen)
Cl.NC(CO)(CO)CCc1ccc(Sc2cccc(OCc3ccccc3)c2)cc1Cl [NCGC00250388-02]	-2.4	–
Cc1cc2c(C(C)C)c(O)c(O)c(C=O)c2c(O)c1-c1c(C)cc2c(C(C)C)c(O)c(O)c(C=O)c2c1O [NCGC00261532-01]	–	-1.4
Cc1ccc(S(=O)(=O)Nc2cnccc2C(=O)Nc2nc(-c3ccccc3)cs2)cc1.O=C(O)C(F)(F)F [NCGC00262386-01]	-1.2	–

same assay, conditions: confirmatory screen; negative = inhibition

SMILES	CONFIRMATORY SCREEN Efficacy (%)
Cl.NC(CO)(CO)CCc1ccc(Sc2cccc(OCc3ccccc3)c2)cc1Cl [NCGC00250388-02]	-80%
Cc1ccc(S(=O)(=O)Nc2cnccc2C(=O)Nc2nc(-c3ccccc3)cs2)cc1.O=C(O)C(F)(F)F [NCGC00262386-01]	-53%

same assay, conditions: confirmatory screen; read-out: CONFIRMATORY SCREEN IC50

SMILES	IC50
Cl.NC(CO)(CO)CCc1ccc(Sc2cccc(OCc3ccccc3)c2)cc1Cl [NCGC00250388-02]	50.1 µM
Cc1ccc(S(=O)(=O)Nc2cnccc2C(=O)Nc2nc(-c3ccccc3)cs2)cc1.O=C(O)C(F)(F)F [NCGC00262386-01]	14.1 µM

same assay, conditions: confirmatory screen; read-out: IC50 [μM] (confirmatory screen)

SMILES	IC50
Cc1cc2c(C(C)C)c(O)c(O)c(C=O)c2c(O)c1-c1c(C)cc2c(C(C)C)c(O)c(O)c(C=O)c2c1O [NCGC00261532-01]	2.8 µM

same assay, conditions: qHTS primary screen hits, Table S2; negative = inhibition

SMILES	Efficacy (%)
Cl.NC(CO)(CO)CCc1ccc(Sc2cccc(OCc3ccccc3)c2)cc1Cl [NCGC00250388-02]	-71%
Cc1ccc(S(=O)(=O)Nc2cnccc2C(=O)Nc2nc(-c3ccccc3)cs2)cc1.O=C(O)C(F)(F)F [NCGC00262386-01]	-42%

same assay, conditions: qHTS primary screen hits, Table S2; negative sign = inhibitory curve; several classes where COUNT > 1

Curve Class	SMILES
-2.2	Cl.NC(CO)(CO)CCc1ccc(Sc2cccc(OCc3ccccc3)c2)cc1Cl [NCGC00250388-02]

same assay, conditions: qHTS primary screen hits, Table S2; read-out: IC50

SMILES	IC50
Cl.NC(CO)(CO)CCc1ccc(Sc2cccc(OCc3ccccc3)c2)cc1Cl [NCGC00250388-02]	79.4 µM
Cc1ccc(S(=O)(=O)Nc2cnccc2C(=O)Nc2nc(-c3ccccc3)cs2)cc1.O=C(O)C(F)(F)F [NCGC00262386-01]	27.4 µM

target: T2, GST-CIB1 : F-scrambled peptide; assay: FP scrambled-peptide counter screen, 1536-well format; type: binding; conditions: counterscreen

SMILES	Efficacy (%) (counterscreen)
Cc1cc2c(C(C)C)c(O)c(O)c(C=O)c2c(O)c1-c1c(C)cc2c(C(C)C)c(O)c(O)c(C=O)c2c1O [NCGC00261532-01]	-63%

same assay, conditions: counterscreen, qHTS curve class; negative sign = inhibitory curve

SMILES	Curve Class (counterscreen)
Cc1cc2c(C(C)C)c(O)c(O)c(C=O)c2c(O)c1-c1c(C)cc2c(C(C)C)c(O)c(O)c(C=O)c2c1O [NCGC00261532-01]	-1.2

same assay, conditions: counterscreen; read-out: IC50 [μM] (counterscreen)

SMILES	IC50
Cc1cc2c(C(C)C)c(O)c(O)c(C=O)c2c(O)c1-c1c(C)cc2c(C(C)C)c(O)c(O)c(C=O)c2c1O [NCGC00261532-01]	7.1 µM

same assay, conditions: scrambled-peptide counterscreen

SMILES	COUNTERSCREEN Efficacy (%)
Cl.NC(CO)(CO)CCc1ccc(Sc2cccc(OCc3ccccc3)c2)cc1Cl [NCGC00250388-02]	-28%
Cc1ccc(S(=O)(=O)Nc2cnccc2C(=O)Nc2nc(-c3ccccc3)cs2)cc1.O=C(O)C(F)(F)F [NCGC00262386-01]	-51%

same assay, conditions: scrambled-peptide counterscreen, YES/NO call

SMILES	COUNTERSCREEN Confirm?
Cl.NC(CO)(CO)CCc1ccc(Sc2cccc(OCc3ccccc3)c2)cc1Cl [NCGC00250388-02]	YES
Cc1ccc(S(=O)(=O)Nc2cnccc2C(=O)Nc2nc(-c3ccccc3)cs2)cc1.O=C(O)C(F)(F)F [NCGC00262386-01]	YES

same assay, conditions: scrambled-peptide counterscreen, qHTS curve class

SMILES	COUNTERSCREEN Curve Class
Cl.NC(CO)(CO)CCc1ccc(Sc2cccc(OCc3ccccc3)c2)cc1Cl [NCGC00250388-02]	4
Cc1ccc(S(=O)(=O)Nc2cnccc2C(=O)Nc2nc(-c3ccccc3)cs2)cc1.O=C(O)C(F)(F)F [NCGC00262386-01]	-3

same assay, conditions: scrambled-peptide counterscreen; read-out: COUNTERSCREEN IC50

SMILES	IC50
Cc1ccc(S(=O)(=O)Nc2cnccc2C(=O)Nc2nc(-c3ccccc3)cs2)cc1.O=C(O)C(F)(F)F [NCGC00262386-01]	89.1 µM
